In patent publication US10597391B2, “Urea-containing isoxazole derivatives as FXR agonists and methods of use thereof” (Enanta Pharmaceuticals, Inc., priority 2016, dated 2020):
pEC50: −log10 of the molar value. Like-named read-outs stand apart in the source and are kept apart here.

Molecular target: T1, human FXR (NR1H4) (Homo sapiens, UniProt Q96RI1)
T1 sequence (Q96RI1 1-486): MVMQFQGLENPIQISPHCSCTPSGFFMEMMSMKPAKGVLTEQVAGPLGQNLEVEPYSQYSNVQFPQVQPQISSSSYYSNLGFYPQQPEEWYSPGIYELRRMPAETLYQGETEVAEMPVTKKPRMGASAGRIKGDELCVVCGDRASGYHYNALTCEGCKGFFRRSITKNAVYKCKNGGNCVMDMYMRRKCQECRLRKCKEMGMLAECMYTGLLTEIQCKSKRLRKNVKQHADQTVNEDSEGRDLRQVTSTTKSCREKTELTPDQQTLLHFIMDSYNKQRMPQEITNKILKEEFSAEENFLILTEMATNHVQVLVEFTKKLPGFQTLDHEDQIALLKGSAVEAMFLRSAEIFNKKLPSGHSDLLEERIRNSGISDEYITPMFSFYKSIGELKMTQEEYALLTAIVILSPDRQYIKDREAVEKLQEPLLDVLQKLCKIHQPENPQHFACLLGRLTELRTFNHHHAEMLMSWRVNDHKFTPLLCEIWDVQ
Assay: Human FXR (NR1H4) Assay: Gal4 promoter driven luciferase reporter transactivation in CHO cells (Indigo Bioscience kit IB00601)
Assay type: cell-based
Conditions: for pEC50: potency range, Human FXR (NR1H4) reporter assay in CHO cells, read-out: EC50; for Emax: CHO, read-out: Efficacy (%)
From the text: Human FXR (NR1H4) Assay Determination of a ligand mediated Gal4 promoter driven transactivation to quantify ligand binding mediated activation of FXR. FXR Reporter Assay kit purchased from Indigo Bioscience (Catalogue number: IB00601) to determine the potency and efficacy of compounds that can induce FXR activation. The principle application of this reporter assay system is to quantify functional activity of human FXR. The assay utilizes non-human mammalian cells, CHO (Chinese hamster ovary) cells engineered to express human NR1H4 protein (referred to as FXR). Reporter cells also incorporate the cDNA encoding beetle luciferase which catalyzes the substrates and yields photon emission. Luminescence intensity of the reaction is quantified using a plate-reading luminometer, Envision. Reporter Cells include the luciferase reporter gene functionally linked to an FXR responsive promoter. Thus, quantifying changes in luciferase expression in the treated reporter cells provides a sensitive surrogate measure of the changes in FXR activity. […] The assay is according to the manufacturer's instructions. […] Retrieve Reporter Cells from −80° C. storage. Perform a rapid thaw of the frozen cells by transferring a 10 ml volume of 37° C. cell recovery medium into the tube of frozen cells. […] Retrieve the tube of Reporter Cell Suspension from the water bath. […] Dispense 90 μl of cell suspension into each well of the 96-well Assay Plate. Transfer the plate into 37° C. incubator, allowing the cells adherent to the bottom of the well. Dilute compounds in Dilution Plate (DP), and administrate to cells at Assay Plate (AP). […] Cells were incubated for additional 22 hours before luciferase activities were measured. Thirty minutes before intending to quantify FXR activity, remove Detection Substrate and Detection Buffer from the refrigerator and place them in a low-light area so that they may equilibrate to room temperature. Remove the plate's lid and discard all media contents by ejecting it into an appropriate waste container. Gently tap the inverted plate onto a clean absorbent paper towel to remove residual droplets. Cells will remain tightly adhered to well bottoms. Add 100 μl of luciferase detection reagent to each well of the assay plate. Allow the assay plate to rest at room temperature for at least 5 minutes following the addition of LDR. Set the instrument (Envision) to perform a single 5 second “plate shake” prior to reading the first assay well. Read time may be 0.5 second (500 mSec) per well.

[1] = efficacy normalized to CDCA set as 100%

Compound | pEC50 | Emax [1] [%] | Emax [%]
O=C(NC1CCCCC1)N1C2CCC1CC(OCc1c(-c3c(Cl)cccc3Cl)noc1C1CC1)C2 (stereo not drawn) [Example 30] | 7.00 to 8.00 | – | –
CCOc1cc(C(=O)O)ccc1NC(=O)N1C2CCC1CC(OCc1c(C3CCC4(CC3)CC4)noc1C1CC1)C2 (stereo not drawn) [Example 813] | 7.00 to 8.00 | 16 | –
O=C(Nc1cccnc1)N1C2CCC1CC(OCc1c(-c3c(Cl)cccc3Cl)noc1C1CC1)C2 (stereo not drawn) [Example 15] | > 8.00 | – | –
CCOC(=O)c1cccc(NC(=O)N2C3CCC2CC(OCc2c(-c4c(Cl)cccc4Cl)noc2C2CC2)C3)c1 (stereo not drawn) [Example 181] | > 8.00 | – | –
CCOc1cc(C(=O)O)ccc1NC(=O)N1C2CCC1CC(OCc1c(-c3ccccc3OC(F)(F)F)noc1C1CC1)C2 (stereo not drawn) [Example 823] | 7.00 to 8.00 | 112 | –
CC(C)(C)c1ccc(C(=O)NC(=O)N2C3CCC2CC(OCc2c(-c4c(Cl)cccc4Cl)noc2C2CC2)C3)cc1 (stereo not drawn) [Example 806] | 7.00 to 8.00 | 5 | –
N#Cc1cccc(NC(=O)N2C3CCC2CC(NCc2c(-c4c(Cl)cccc4Cl)noc2C2CC2)C3)c1 (stereo not drawn) [Example 93] | 7.00 to 8.00 | – | –
CCOC(=O)c1ccc2c(c1)N(C(=O)N1C3CCC1CC(OCc1c(-c4ccccc4OC(F)(F)F)noc1C1CC1)C3)CCC2 (stereo not drawn) [Example 595] | < 6.00 | – | 7
O=C(O)c1ccc(NC(=O)N2C3CCC2CC(OCc2c(-c4c(Cl)cccc4Cl)noc2C2CC2)C3)c(F)c1-c1ccccc1 (stereo not drawn) [Example 798] | 7.00 to 8.00 | 124 | –
COc1ccc(CNC(=O)N2C3CCC2CC(OCc2c(-c4c(Cl)cccc4Cl)noc2C2CC2)C3)cc1 (stereo not drawn) [Example 731] | > 8.00 | 229 | –
CC(C)S(=O)(=O)NC(=O)c1cccc(NC(=O)N2C3CCC2CC(OCc2c(-c4ccccc4OC(F)(F)F)noc2C2CC2)C3)c1 (stereo not drawn) [Example 758] | 6.00 to 7.00 | 233 | –
CC(C)(C)c1cccc(NC(=O)N2C3CCC2CC(OCc2c(-c4c(Cl)cccc4Cl)noc2C2CC2)C3)c1 (stereo not drawn) [Example 4] | 7.00 to 8.00 | – | –
CCOC(=O)c1cccc(NC(=O)N2C3CCC2CC(OCc2c(-c4ccccc4OC(F)(F)F)noc2C2CC2)C3)c1 (stereo not drawn) [Example 227] | 7.00 to 8.00 | – | –
COC(=O)c1ccc(NC(=O)N2C3CCC2CC(OCc2c(-c4c(Cl)cccc4Cl)noc2C2CC2)C3)c(C2CC2)c1 (stereo not drawn) [Example 800] | 7.00 to 8.00 | 54 | –
O=C(c1ccc(-c2cccc(NC(=O)N3C4CCC3CC(OCc3c(-c5c(Cl)cccc5Cl)noc3C3CC3)C4)c2)cc1)N1CCOCC1 (stereo not drawn) [Example 707] | 7.00 to 8.00 | 220 | –
COC(=O)c1ccc(NC(=O)N2C3CCC2CC(OCc2c(-c4c(Cl)cccc4Cl)noc2C2CC2)C3)cc1-c1ccccc1 (stereo not drawn) [Example 200] | > 8.00 | – | –
O=C(O)c1ccc(NC(=O)N2C3CCC2CC(OCc2c(C4CCC5(CC4)CC5)noc2C2CC2)C3)c(F)c1 (stereo not drawn) [Example 285] | 7.00 to 8.00 | – | –
O=C(NCc1ccccc1-c1ccccc1)N1C2CCC1CC(OCc1c(-c3c(Cl)cccc3Cl)noc1C1CC1)C2 (stereo not drawn) [Example 740] | > 8.00 | 90 | –
CCOc1cc(C(=O)O)ccc1NC(=O)N1C2CCC1CC(OCc1c(-c3c(F)cccc3F)noc1C1CC1)C2 (stereo not drawn) [Example 810] | 7.00 to 8.00 | 64 | –
O=C(NCc1ccc(F)cc1)N1C2CCC1CC(OCc1c(-c3c(Cl)cccc3Cl)noc1C1CC1)C2 (stereo not drawn) [Example 732] | > 8.00 | 180 | –
CC(=O)N1CCC(c2cccc(NC(=O)N3C4CCC3CC(OCc3c(-c5c(Cl)cccc5Cl)noc3C3CC3)C4)c2)CC1 (stereo not drawn) [Example 714] | 7.00 to 8.00 | 156 | –
CCOC(=O)c1ccc(NC(=O)N2C3CCC2CC(NCc2c(-c4ccccc4OC(F)(F)F)noc2C2CC2)C3)c(OCC)c1 (stereo not drawn) [Example 831] | 7.00 to 8.00 | 15 | –
O=C(Nc1cccc(F)c1)N1C2CCC1CC(OCc1c(-c3c(Cl)cccc3Cl)noc1C1CC1)C2 (stereo not drawn) [Example 1] | > 8.00 | – | –

Compound | pEC50 | Emax [1] [%] | Emax [%]
CC(C)(C)c1ccc(S(=O)(=O)NC(=O)c2ccc(NC(=O)N3C4CCC3CC(OCc3c(-c5ccccc5OC(F)(F)F)noc3C3CC3)C4)cc2)cc1 (stereo not drawn) [Example 757] | 6.00 to 7.00 | 257 | –
O=C(O)c1ccc(NC(=O)N2C3CCC2CC(OCc2c(-c4c(Cl)cccc4Cl)noc2C2CC2)C3)cc1C(F)(F)F (stereo not drawn) [Example 195] | 7.00 to 8.00 | – | –
CCOc1cc(C(=O)O)ccc1NC(=O)N1C2CCC1CC(OCc1c(-c3ccccc3C3CC3)noc1C1CC1)C2 (stereo not drawn) [Example 811] | 7.00 to 8.00 | 66 | –
CCOC(=O)c1cccc(NC(=O)N2C3CCC2CC(NCc2c(-c4c(Cl)cccc4Cl)noc2C2CC2)C3)c1 (stereo not drawn) [Example 827] | > 8.00 | 110 | –
O=C(Nc1cccc(-c2ccncc2)c1)N1C2CCC1CC(OCc1c(-c3c(Cl)cccc3Cl)noc1C1CC1)C2 (stereo not drawn) [Example 836] | > 8.00 | 135 | –
COC(=O)c1ccc(NC(=O)N2C3CCC2CC(OCc2c(-c4c(Cl)cccc4Cl)noc2C2CC2)C3)c(OC(C)C)c1 (stereo not drawn) [Example 719] | 6.00 to 7.00 | 104 | –
O=C(O)c1ccc(NC(=O)N2C3CCC2CC(OCc2c(-c4c(Cl)cccc4Cl)noc2C2CC2)C3)cc1 (stereo not drawn) [Example 184] | > 8.00 | – | –
Cn1cc(-c2cccc(NC(=O)N3C4CCC3CC(OCc3c(-c5c(Cl)cccc5Cl)noc3C3CC3)C4)c2)cn1 (stereo not drawn) [Example 13] | > 8.00 | – | –
CC(C)(C)c1ccc(S(=O)(=O)NC(=O)c2cccc(NC(=O)N3C4CCC3CC(OCc3c(-c5ccccc5OC(F)(F)F)noc3C3CC3)C4)c2)cc1 (stereo not drawn) [Example 263] | < 6.00 | – | –
Cn1nnnc1-c1cccc(NC(=O)N2C3CCC2CC(OCc2c(-c4c(Cl)cccc4Cl)noc2C2CC2)C3)c1 (stereo not drawn) [Example 186] | 7.00 to 8.00 | – | –
CCOC(=O)c1ccc2nc(NC(=O)N3C4CCC3CC(OCc3c(-c5c(Cl)cccc5Cl)noc3C3CC3)C4)sc2c1 (stereo not drawn) [Example 804] | 7.00 to 8.00 | 90 | –
COC(=O)c1ccc(NC(=O)N2C3CCC2CC(OCc2c(-c4c(Cl)cccc4Cl)noc2C2CC2)C3)cc1-c1ccc(OC)nc1 (stereo not drawn) [Example 784] | > 8.00 | 102 | –
O=C(Nc1cccc(C2CCCCC2)c1)N1C2CCC1CC(OCc1c(-c3c(Cl)cccc3Cl)noc1C1CC1)C2 (stereo not drawn) [Example 712] | 7.00 to 8.00 | 144 | –
O=C(O)c1ccc(F)c(NC(=O)N2C3CCC2CC(OCc2c(-c4c(Cl)cccc4Cl)noc2C2CC2)C3)c1 (stereo not drawn) [Example 723] | 6.00 to 7.00 | 140 | –
O=C(Nc1cccc(-c2nccs2)c1)N1C2CCC1CC(OCc1c(-c3c(Cl)cccc3Cl)noc1C1CC1)C2 (stereo not drawn) [Example 737] | > 8.00 | 179 | –
COC(=O)c1ccc(F)c(NC(=O)N2C3CCC2CC(OCc2c(-c4ccccc4OC(F)(F)F)noc2C2CC2)C3)c1 (stereo not drawn) [Example 747] | 6.00 to 7.00 | 145 | –
COC(=O)CNC(=O)c1ccc(NC(=O)N2C3CCC2CC(OCc2c(-c4c(Cl)cccc4Cl)noc2C2CC2)C3)c(F)c1 (stereo not drawn) [Example 781] | 7.00 to 8.00 | 100 | –
O=C(c1cccc(NC(=O)N2C3CCC2CC(OCc2c(-c4c(Cl)cccc4Cl)noc2C2CC2)C3)c1)N1CCOCC1 (stereo not drawn) [Example 214] | 7.00 to 8.00 | – | –
CCOC(=O)c1ccc2c(c1)CCCN2C(=O)N1C2CCC1CC(OCc1c(-c3ccccc3OC(F)(F)F)noc1C1CC1)C2 (stereo not drawn) [Example 593] | < 6.00 | – | 40
O=C(Nc1ccccc1C(F)(F)F)N1C2CCC1CC(OCc1c(-c3c(Cl)cccc3Cl)noc1C1CC1)C2 (stereo not drawn) [Example 6] | 6.00 to 7.00 | – | –
O=C(O)c1ccc(NC(=O)N2C3CCC2CC(OCc2c(-c4ccccc4OC(F)(F)F)noc2C2CC2)C3)cc1OC(F)(F)F (stereo not drawn) [Example 822] | > 8.00 | 76 | –
O=C(O)c1ccc(NC(=O)N2C3CCC2CC(OCc2c(-c4c(F)cccc4F)noc2C2CC2)C3)cc1-c1ccccc1 (stereo not drawn) [Example 816] | 7.00 to 8.00 | 36 | –
CN(C)S(=O)(=O)NC(=O)c1cccc(NC(=O)N2C3CCC2CC(OCc2c(-c4c(Cl)cccc4Cl)noc2C2CC2)C3)c1 (stereo not drawn) [Example 219] | 6.00 to 7.00 | – | –
